Reference: patent US20120129870A1, “PIPERAZINYL DERIVATIVES USEFUL AS MODULATORS OF THE NEUROPEPTIDE Y2 RECEPTOR” (priority 2007, published 2012)

Experiments:
NPY Y2 receptor [1] = target: T1, NPY Y2 receptor (Homo sapiens, UniProt P49146); assay: Neuropeptide Y2 pKB assay (FLIPR, KAN-Ts cells stably expressing chimeric G proteins); type: cell-based; details: apparent pKB, modified Cheng-Prusoff correction
T1 sequence (P49146 1-381): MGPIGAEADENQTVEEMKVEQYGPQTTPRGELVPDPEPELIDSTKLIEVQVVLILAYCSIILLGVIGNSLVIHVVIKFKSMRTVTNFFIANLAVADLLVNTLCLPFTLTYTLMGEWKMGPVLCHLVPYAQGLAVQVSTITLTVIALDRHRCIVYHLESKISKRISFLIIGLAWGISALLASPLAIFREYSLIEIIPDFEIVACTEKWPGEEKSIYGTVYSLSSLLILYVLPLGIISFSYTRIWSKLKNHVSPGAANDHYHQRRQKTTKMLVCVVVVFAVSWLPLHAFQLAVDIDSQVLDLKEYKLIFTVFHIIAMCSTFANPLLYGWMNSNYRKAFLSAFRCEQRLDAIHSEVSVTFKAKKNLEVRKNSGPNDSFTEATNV
Procedure: The assay was performed using the fluorimetric imaging plate reader (FLIPR) format as described in Dautzenberg, F. M., Biochemical Pharmacology 2005, 69, 1493.
KAN-Ts cells stably expressing chimeric G proteins were seeded at a density of 100,000 cells into poly-d-lysine coated 384-well blackwall, clear-bottom microtiter plates (Corning, N.Y.). One day later, the medium was removed and 50 μl loading medium DMEM high glucose, without serum, supplemented with 10 mM HEPES-acid, 0.1% BSA, 5 mM probenecid and 2 μM Fluo-3AM was added. Cells were loaded for 1 h at 37° C., washed twice with 50 μl assay buffer (5 mM HEPES-acid, 140 mM NaCl, 1 mM MgCl2, 5 mM KCl, 10 mM glucose) and then 30 μl assay buffer was added. Cells were further pre-incubated at room temperature before adding agonists or agonists plus antagonists in 20 μl assay buffer and then measured on a T-channel fluorometric imaging plate reader (FLIPR, Molecular Devices, Sunnyvale, Calif.). Antagonistic potency values were converted to apparent pKB values using a modified Cheng-Prusoff correction. Apparent pKB was calculated as pKB=−log IC50/1+[conc agonist/EC50].

NPY Y2 receptor [2] = target: T1, NPY Y2 receptor; assay: Neuropeptide Y2 radioligand binding assay ([125I]PYY, KAN-Ts membranes); set-up: endogenous in cells; host or cells: KAN-Ts cells (membrane preparation); details: KAN-Ts membranes endogenously expressing Y2, [125I]PYY (80 pM), 1 h at rt
Procedure: KAN-Ts endogenously expressing Y2 receptors were used for the radioligand binding assay. Cells were grown to confluence on 150 cm^2 tissue culture plates, washed with phosphate-buffered saline (PBS), and scraped into 50 mL tubes. After centrifugation, the supernatant was aspirated, and the pellets frozen and stored at −80° C. Thawed pellets were homogenized with a polytron tissue grinder for 15 sec in 20 mM Tris-HCl, 5 mM EDTA. The homogenate was centrifuged at 800×g for 5 min and the collected supernatant was recentrifuged at 25000×g for 25 min. The resulting pellet was resuspended in binding buffer (20 mM HEPES, 120 mM NaCl, 0.22 mM KH2PO4, 1.3 mM CaCl2, 0.8 mM MgSO4). Membranes were incubated with [^125I]PYY (80 pM) in the presence or absence of test compound for 1 h at rt. The reaction was stopped by filtration through GF/C filter plates pre-soaked in 0.3% polyethylenimine and subsequently washed with Tris 50 mM, 5 mM EDTA buffer. Plates were dried for 1 h in a 55° C. oven, scintillation fluid was added and the radioactivity was counted in a Packard TopCount. Specific binding to the NPY receptor subtypes was determined by radioactivity that was bound in the presence of […]. Each binding experiment was repeated three to eight times, each in duplicate. IC50 values (i.e. concentration of unlabelled peptide or antagonist required to compete for 50% of specific binding to the radioligand) were calculated using the GraphPad Prism software (GraphPad Software Inc., San Diego Calif.) with a fit to a sigmoidal dose response curve. Apparent K, values were calculated as Ki=IC50/(1+C/KD), where C is concentration of the radioligand.

Kb (NPY Y2 receptor [1]) | IC50 (NPY Y2 receptor [2]) | Structure (SMILES)
15.8 nM | 23 nM | CCc1nc(C(c2ccccc2)N2CCN(c3ccc(NC(=O)C(CC)CC)cc3F)CC2)no1 (stereo not drawn) [Compound 236, 2-Ethyl-N-(4-{4-[(5-ethyl-[1,2,4]-oxadiazol-3-yl)-phenyl-methyl]-piperazin-1-yl}-3-fluoro-phenyl)-butyramide]
12.6 nM | 13 nM | CCC(CC)C(=O)Nc1ccc(N2CCN(C(c3ccccc3)c3noc(C)n3)CC2)c(F)c1 (stereo not drawn) [Compound 239, 2-Ethyl-N-(3-fluoro-4-{4-[(5-methyl-[1,2,4]-oxadiazol-3-yl)-phenyl-methyl]-piperazin-1-yl}-phenyl)-butyramide]
100 nM | 18 nM | CCC(CC)C(=O)Nc1ccc(N2CCN(C(c3ccccc3)c3nc4ccccc4o3)CC2)c(F)c1 (stereo not drawn) [Compound 165, N-{4-[4-(Benzooxazol-2-yl-phenyl-methyl)-piperazin-1-yl]-3-fluoro-phenyl}-2-ethyl-butyramide]
70.8 nM | 58 nM | CCC(CC)C(=O)Nc1ccc(N2CCN(C(c3ccccc3)c3nc4ccccc4s3)CC2)c(F)c1 (stereo not drawn) [Compound 168, N-{4-[4-(Benzothiazol-2-yl-phenyl-methyl)-piperazin-1-yl]-3-fluoro-phenyl}-2-ethyl-butyramide]
100 nM | 29 nM | CC(CC(F)(F)F)C(=O)Nc1ccc(N2CCN(C(c3ccccc3)c3ncco3)CC2)c(C#N)c1 (stereo not drawn) [Compound 110, N-{3-Cyano-4-[4-(oxazol-2-yl-phenyl-methyl)-piperazin-1-yl]-phenyl}-4,4,4-trifluoro-2-methyl-butyramide]
39.8 nM | 39 nM | CCc1nnc(C(c2ccccc2)N2CCN(c3ccc(NC(=O)C(CC)CC)cc3F)CC2)o1 (stereo not drawn) [Compound 153, 2-Ethyl-N-(4-{4-[(5-ethyl-[1,3,4]-oxadiazol-2-yl)-phenyl-methyl]-piperazin-1-yl}-3-fluoro-phenyl)-butyramide]
79.4 nM | 40 nM | CCC(CC)C(=O)Nc1ccc(N2CCN(C(c3ccccc3)c3cccnc3)CC2)c(F)c1 (stereo not drawn) [Compound 24, 2-Ethyl-N-{3-fluoro-4-[4-(phenyl-pyridin-3-yl-methyl)-piperazin-1-yl]-phenyl}-butyramide]
25.1 nM | 12 nM | CCC(CC)C(=O)Nc1ccc(N2CCN(C(c3ccccc3)c3cc(C)no3)CC2)c(F)c1 (stereo not drawn) [Compound 230, 2-Ethyl-N-(3-fluoro-4-{4-[(3-methyl-isoxazol-5-yl)-phenyl-methyl]-piperazin-1-yl}-phenyl)-butyramide]
63.1 nM | 30 nM | CCC(CC)C(=O)Nc1ccc(N2CCN(C(c3ccccc3)c3noc(CF)n3)CC2)c(F)c1 (stereo not drawn) [Compound 235, 2-Ethyl-N-(3-fluoro-4-{4-[(5-fluoromethyl-[1,2,4]-oxadiazol-3-yl)-phenyl-methyl]-piperazin-1-yl}-phenyl)-butyramide]
31.6 nM | 38 nM | N#Cc1cc(NC(=O)[C@@H]2CCOC2)ccc1N1CCN(C(c2ccccc2)c2ncco2)CC1 (stereo partly drawn) [Compound 90, Tetrahydro-furan-3-carboxylic acid {3-cyano-4-[4-(oxazol-2-yl-phenyl-methyl)-piperazin-1-yl]-phenyl}-amide]
158 nM | 240 nM | CC[C@@H](C)C(=O)Nc1ccc(N2CCN(C(c3ccccc3)c3ncco3)CC2)c(F)c1 (stereo in doubt) [Compound 91, N-{3-Fluoro-4-[4-(oxazol-2-yl-phenyl-methyl)-piperazin-1-yl]-phenyl}-2-methyl-butyramide]
63.1 nM | 34 nM | CCC(CC)C(=O)Nc1ccc(N2CCN(C(c3ccccc3)c3ncco3)CC2)c(F)c1 (single isomer, unassigned) [Compound 60, 2-Ethyl-N-{3-fluoro-4-[4-(oxazol-2-yl-phenyl-methyl)-piperazin-1-yl]-phenyl}-butyramide]
 | > 10000 nM | O=C(NCc1ccc(N2CCN(C(c3ccccc3)c3ncco3)CC2)c(F)c1)C1CC1 (stereo not drawn) [Compound 171, Cyclopropanecarboxylic acid 3-fluoro-4-[4-(oxazol-2-yl-phenyl-methyl)-piperazin-1-yl]-benzylamide]
 | 710 nM | Cc1ccccc1Nc1ccc(N2CCN(C(c3ccccc3)c3ncco3)CC2)c(F)c1 (stereo not drawn) [Compound 63, {3-Fluoro-4-[4-(oxazol-2-yl-phenyl-methyl)-piperazin-1-yl]-phenyl}-o-tolyl-amine]
 | 5 nM | CCC(CC)C(=O)Nc1ccc(N2CCN(C(c3ccccc3)c3ncco3)CC2)c(C#N)c1 (stereo not drawn) [Compound 86, N-{3-Cyano-4-[4-(oxazol-2-yl-phenyl-methyl)-piperazin-1-yl]-phenyl}-2-ethyl-butyramide]
 | 1200 nM | CCC(CC)NC(=O)c1ccc(N2CCN(C(c3ccccc3)c3ncco3)CC2)c(F)c1 (stereo not drawn) [Compound 46, N-(1-Ethyl-propyl)-3-fluoro-4-[4-(oxazol-2-yl-phenyl-methyl)-piperazin-1-yl]-benzamide]
 | 53 nM | CCC(CC)C(=O)Nc1ccc(N2CCN(C(c3ccccc3)C3CCC3)CC2)c(F)c1 (stereo not drawn) [Compound 78, N-{4-[4-(Cyclobutyl-phenyl-methyl)-piperazin-1-yl]-3-fluoro-phenyl}-2-ethyl-butyramide]
 | 460 nM | CCC(CC)C(=O)Nc1ccc(N2CCN(C(c3ccccc3)C3CCOC3)CC2)c(F)c1 (stereo not drawn) [Compound 114, 2-Ethyl-N-(3-fluoro-4-{4-[phenyl-(tetrahydro-furan-3-yl)-methyl]-piperazin-1-yl}-phenyl)-butyramide]
 | > 10000 nM | Cc1cccnc1Nc1ccc(N2CCN(C(c3ccccc3)c3ncco3)CC2)c(F)c1 (stereo not drawn) [Compound 57, {3-Fluoro-4-[4-(oxazol-2-yl-phenyl-methyl)-piperazin-1-yl]-phenyl}-(3-methyl-pyridin-2-yl)-amine]
 | 360 nM | CC(CC(F)(F)F)C(=O)Nc1ccc(N2CCN(C(c3ccccc3)c3ncco3)CC2)c(F)c1 (stereo not drawn) [Compound 111, 4,4,4-Trifluoro-N-{3-fluoro-4-[4-(oxazol-2-yl-phenyl-methyl)-piperazin-1-yl]-phenyl}-2-methyl-butyramide]
 | 200 nM | CCC(CC)C(=O)Nc1ccc(N2CCN(C(c3ccccc3)C3CCCC3)CC2)c(F)c1 (stereo not drawn) [Compound 83, N-{4-[4-(Cyclopentyl-phenyl-methyl)-piperazin-1-yl]-3-fluoro-phenyl}-2-ethyl-butyramide]
 | 54 nM | CCC(CC)C(=O)Nc1ccc(N2CCN(C(c3ccccn3)c3ccccn3)CC2)c(F)c1 [Compound 55, N-{4-[4-(Di-pyridin-2-yl-methyl)-piperazin-1-yl]-3-fluoro-phenyl}-2-ethyl-butyramide]
 | 180 nM | O=C(Nc1ccc(N2CCN(C(c3ccccc3)c3ncco3)CC2)c(F)c1)C1CCC1 (stereo not drawn) [Compound 73, Cyclobutanecarboxylic acid {3-fluoro-4-[4-(oxazol-2-yl-phenyl-methyl)-piperazin-1-yl]-phenyl}-amide]

Structure (SMILES) | Kb (NPY Y2 receptor [1]) | IC50 (NPY Y2 receptor [2])
CCC(CC)C(=O)Nc1ccc(N2CCN(C(c3ccccc3)c3nc(C)no3)CC2)c(F)c1 (stereo not drawn) [Compound 2, 2-Ethyl-N-(3-fluoro-4-{4-[(3-methyl-[1,2,4]-oxadiazol-5-yl)-phenyl-methyl]-piperazin-1-yl}phenyl)-butyramide] | 39.8 nM | 27 nM
CCC(CC)C(=O)Nc1ccc(N2CCN(C(c3cccc(F)c3)c3ncco3)CC2)c(C#N)c1 (stereo not drawn) [Compound 131, N-(3-Cyano-4-{4-[(3-fluoro-phenyl)-oxazol-2-yl-methyl]-piperazin-1-yl}-phenyl)-2-ethyl-butyramide] | 12.6 nM | 7 nM
